# Test results taken from publication PMC7523345 (Investigational new drugs, 2018).
# Entries after “also recorded” stand apart in the source; their conditions may differ.
# Assay: Phase I dose escalation study: safety, tolerability, DLT and MTD
# Type: in vivo
structure (smiles),measurement,setting,value
Cc1cccc2c1NC(=O)[C@@H](NC(=O)[C@H](CCC(F)(F)F)[C@H](CCC(F)(F)F)C(N)=O)N=C2c1cccc(F)c1 [BMS-986115],"Vision blurred (drug related AE, all grades)",Arm B BIW 8 mg (N = 8),1 (13) n (%)
same,"Vomiting (drug related AE, Grade 3 and 4)",Arm B BIW 8 mg (N = 8),0 n (%)
same,"Vomiting (drug related AE, all grades)",Arm B BIW 8 mg (N = 8),4 (50) n (%)
same,"Weight decreased (drug related AE, all grades)",Arm B BIW 8 mg (N = 8),0 n (%)
same,No. of patients with DLTs,"Arm B BIW 8 mg, 6 DLT evaluable patients",2
same,"Abdominal distension (drug related AE, all grades)",Arm B BIW Total (N = 12),1 (8) n (%)
same,"Abdominal pain (drug related AE, Grade 3 and 4)",Arm B BIW Total (N = 12),0 n (%)
same,"Abdominal pain (drug related AE, all grades)",Arm B BIW Total (N = 12),1 (8) n (%)
same,"Blood creatinine increased (drug related AE, all grades)",Arm B BIW Total (N = 12),1 (8) n (%)
same,"Colitis (drug related AE, Grade 3 and 4)",Arm B BIW Total (N = 12),0 n (%)
same,"Cough (drug related AE, Grade 3 and 4)",Arm B BIW Total (N = 12),0 n (%)
same,"Cough (drug related AE, all grades)",Arm B BIW Total (N = 12),1 (8) n (%)
same,"Decreased Appetite (drug related AE, Grade 3 and 4)",Arm B BIW Total (N = 12),1 (8) n (%)
same,"Decreased Appetite (drug related AE, all grades)",Arm B BIW Total (N = 12),5 (42) n (%)
same,"Dehydration (drug related AE, Grade 3 and 4)",Arm B BIW Total (N = 12),1 (8) n (%)
same,"Dehydration (drug related AE, all grades)",Arm B BIW Total (N = 12),2 (17) n (%)
same,"Dermatitis acneiform (drug related AE, all grades)",Arm B BIW Total (N = 12),0 n (%)
same,"Diarrhoea (drug related AE, Grade 3 and 4)",Arm B BIW Total (N = 12),3 (25) n (%)
same,"Diarrhoea (drug related AE, all grades)",Arm B BIW Total (N = 12),8 (67) n (%)
same,"Dry mouth (drug related AE, all grades)",Arm B BIW Total (N = 12),1 (8) n (%)
same,"Dry skin (drug related AE, all grades)",Arm B BIW Total (N = 12),2 (17) n (%)
same,"Dysgeusia (drug related AE, all grades)",Arm B BIW Total (N = 12),2 (17) n (%)
same,"Dyspepsia (drug related AE, all grades)",Arm B BIW Total (N = 12),1 (8) n (%)
same,"Dysphonia (drug related AE, all grades)",Arm B BIW Total (N = 12),1 (8) n (%)
same,"Fatigue (drug related AE, Grade 3 and 4)",Arm B BIW Total (N = 12),0 n (%)
same,"Fatigue (drug related AE, all grades)",Arm B BIW Total (N = 12),6 (50) n (%)
same,"Flatulence (drug related AE, all grades)",Arm B BIW Total (N = 12),3 (25) n (%)
same,"Hypocalcaemia (drug related AE, Grade 3 and 4)",Arm B BIW Total (N = 12),1 (8) n (%)
same,"Hypocalcaemia (drug related AE, all grades)",Arm B BIW Total (N = 12),1 (8) n (%)
same,"Hypokalaemia (drug related AE, Grade 3 and 4)",Arm B BIW Total (N = 12),0 n (%)
same,"Hypokalaemia (drug related AE, all grades)",Arm B BIW Total (N = 12),3 (25) n (%)
same,"Hyponatraemia (drug related AE, Grade 3 and 4)",Arm B BIW Total (N = 12),1 (8) n (%)
same,"Hyponatraemia (drug related AE, all grades)",Arm B BIW Total (N = 12),1 (8) n (%)
same,"Hypophosphataemia (drug related AE, Grade 3 and 4)",Arm B BIW Total (N = 12),6 (50) n (%)
same,"Hypophosphataemia (drug related AE, all grades)",Arm B BIW Total (N = 12),7 (58) n (%)
same,"Ileus (drug related AE, Grade 3 and 4)",Arm B BIW Total (N = 12),0 n (%)
same,"Increased upper airway secretion (drug related AE, all grades)",Arm B BIW Total (N = 12),3 (25) n (%)
same,"Laryngeal pain (drug related AE, all grades)",Arm B BIW Total (N = 12),0 n (%)
same,"Leucocytosis (drug related AE, Grade 3 and 4)",Arm B BIW Total (N = 12),1 (8) n (%)
same,"Mouth ulceration (drug related AE, all grades)",Arm B BIW Total (N = 12),1 (8) n (%)
same,"Nausea (drug related AE, Grade 3 and 4)",Arm B BIW Total (N = 12),1 (8) n (%)
same,"Nausea (drug related AE, all grades)",Arm B BIW Total (N = 12),7 (58) n (%)
same,"Pruritus (drug related AE, Grade 3 and 4)",Arm B BIW Total (N = 12),0 n (%)
same,"Pruritus (drug related AE, all grades)",Arm B BIW Total (N = 12),3 (25) n (%)
same,"Pulmonary embolism (drug related AE, Grade 3 and 4)",Arm B BIW Total (N = 12),0 n (%)
same,"Rash (drug related AE, all grades)",Arm B BIW Total (N = 12),3 (25) n (%)
same,"Rash maculopapular (drug related AE, all grades)",Arm B BIW Total (N = 12),3 (25) n (%)
same,"Sinusitis (drug related AE, all grades)",Arm B BIW Total (N = 12),0 n (%)
same,"Urticaria (drug related AE, Grade 3 and 4)",Arm B BIW Total (N = 12),0 n (%)
same,"Vision blurred (drug related AE, all grades)",Arm B BIW Total (N = 12),1 (8) n (%)
same,"Vomiting (drug related AE, Grade 3 and 4)",Arm B BIW Total (N = 12),0 n (%)
same,"Vomiting (drug related AE, all grades)",Arm B BIW Total (N = 12),4 (33) n (%)
same,"Weight decreased (drug related AE, all grades)",Arm B BIW Total (N = 12),0 n (%)
same,Patients with dose limiting toxicities,"Arm B BIW, all dose levels",2 patients
same,"Treatment-related SAEs, description","Arm B BIW, one line per subject","Gr 3 diarrhoea; also recorded: Gr 3 nausea, dehydration and decreased appetite"
same,Maximum Tolerated Dose (MTD),"Arm B, twice weekly (BIW) oral dosing",not established
same,Treatment-related deaths,all 36 patients,no treatment-related deaths
same,Subjects who discontinued due to treatment-related AEs,all 36 subjects,5 subjects
same,Subjects who discontinued treatment due to AEs,all 36 subjects,25%
same,Subjects with treatment-related SAEs,all 36 subjects,22%
same,Subjects with SAEs,"all 36 subjects, overall",50%
same,"Hypokalaemia, treatment-related Gr 3 or 4 AE",all patients,11%
same,"Hyponatraemia, treatment-related Gr 3 or 4 AE",all patients,6%
same,"Nausea, treatment-related Gr 3 or 4 AE",all patients,11%
same,"Decreased appetite, treatment related AE","all patients, all grades",36%
same,"Diarrhoea, treatment related AE","all patients, all grades",72%
same,"Hypokalaemia, treatment related AE","all patients, all grades",28%
same,"Hypophosphataemia, treatment related AE","all patients, all grades",64%
same,"Nausea, treatment related AE","all patients, all grades",61%
same,"Rash, treatment related AE","all patients, all grades",31%
same,"Diarrhoea, AE regardless of causality",all treated subjects,72%
